Results published in US20090012103A1, “SUBSTITUTED HETEROCYCLIC COMPOUNDS” (priority 2007, published 2009).

Columns and labels:
[1] = molecular target: hERG potassium channel (Homo sapiens, UniProt Q12809); assay: hERG screening assay (PatchXpress patch clamp, CHO cell line)
Procedure: Compounds were screened to test their activity in blocking the hERG potassium channel. The hERG channel is heterologously expressed in a CHO (Chinese Hamster Ovary) cell line. Cells are maintained with standard tissue culture procedures and stable channel expression is maintained with 500 μg/ml G418 in the culture medium. Cells are harvested for testing on the PatchXpress automated patch clamp with Accumax (Innovative Cell Technologies, San Diego, Calif.) to isolate single cells.
The following solutions are used for electrophysiological recordings. The external solution contains: 2 mM CaCl2; 2 mM MgCl2; 4 mM KCl; 150 mM NaCl; 10 mM Glucose; 10 mM HEPES (pH 7.4 with 1M NaOH, osmolarity).
hERG channels are activated when the voltage is stepped to +20 mV from the −80 mV holding potential (see FIG. 3). During a 5 second step at +20 mV, the channels activate and then largely inactivate, so the currents are relatively small. Upon returning to −50 mV from +20 mV, hERG currents transiently become much larger as inactivation is rapidly removed and then the channel closes. The first step to −50 mV for 300 ms is used as a baseline for measuring the peak amplitude during the step to −50 mV after channel activation. The peak current at −50 mV is measured both under control conditions and after addition of compound.
All compounds are prepared as 10 mM DMSO stocks in glass vials. Stock solutions are mixed by vigorous vortexing and sonication for about 2 minutes at room temperature. For testing, compounds are diluted in glass vials using an intermediate dilution step in pure DMSO and then further diluted to working concentrations in external solution. Dilutions are prepared no longer than 20 minutes before use.
After achieving the whole-cell configuration, cells are monitored for 90 seconds to assess stability and washed with external solution for 66 seconds. The voltage protocol described above is then applied to the cells every 12 seconds and throughout the whole procedure. Only cells with stable recording parameters and meeting specified health criteria are allowed to enter the compound addition procedure.
External solution containing 0.1% DMSO (vehicle) is applied to the cells first to establish the control peak current amplitude. After allowing the current to stabilize for 3 to 5 minutes, 1 μM and then 10 μM test compounds are applied. Each compound concentration is added 4 times and cells are kept in test solution until the effect of the compound reaches steady state or for a maximum of 12 minutes. […] Washout in the external solution compartment is performed until the recovery of the current reaches steady state. Data are analyzed using DataXpress, Clampfit (Molecular Devices, Inc., Sunnyvale) and Origin 7 (Originlab Corp.)

[2] = molecular target: T1, wild-type human cardiac sodium channel, hNav1.5 (Homo sapiens, UniProt Q14524); assay: Peak INa screening assay (tonic block TB and use-dependent block UDB of peak sodium current); type: cell-based; details: compound at 10 μM
Procedure: The late sodium current (Late INa) and peak sodium current (Peak INa) assays are performed on an automated electrophysiology platform, PatchXpress 7000A (MDS Analytical Technologies, Sunnyvale, Calif.), which uses the whole cell patch clamp technique to measure currents through the cell membrane of up to 16 cells at a time. The assay uses an HEK293 (human embryonic kidney) cell line heterologously expressing the wild-type human cardiac sodium channel, hNav1.5, purchased from Millipore (Billerica, Mass.). No beta subunits were coexpressed with the Na channel alpha subunit. […] Experiments are carried out at 24-27° C.
For both the Late INa and Peak INa assays, series resistance compensation is set to 50% and whole-cell compensation is performed automatically. […] Currents through open sodium channels are automatically recorded and stored in the DataXpress2 database (MDS Analytical Technologies, Sunnyvale, Calif.). Analysis is performed using DataXpress2 analysis software and data are compiled in Excel.
Compound stocks are routinely made in glass vials to 10 mM in dimethyl sulfoxide (DMSO). In some cases, when compounds are not soluble in DMSO, they are made in 100% ethanol. Stocks are sonicated as necessary. The extracellular solution for screening Late INa is composed of: 140 mM NaCl, 4 mM KCl, 1.8 mM CaCl2, 0.75 mM MgCl2, and 5 mM HEPES with pH adjusted to 7.4 using NaOH. The extracellular solution for screening Peak INa is composed of: 20 mM NaCl, 120 mM N-methyl-D glucamine, 4 mM KCl, 1.8 mM CaCl2, 0.75 mM MgCl2, and 5 mM HEPES with pH adjusted to 7.4 using HCl. The intracellular solution used to perfuse the inside of the cells for both the Late INa and Peak INa assays contains: 120 mM CsF, 20 mM CsCl, 5 mM EGTA, 5 mM HEPES and pH adjusted to 7.4 with CsOH. Compounds are diluted in extracellular solution to 10 μM in glass vials and then transferred to glass well plates before robotic addition to the cells. The 0 Na extracellular solution used at the end of each experiment for the Late INa and Peak INa assays to measure baseline current contains: 140 mM N-methyl-D-glucamine; 4 mM KCl; 1.8 mM CaCl2; 0.75 mM MgCl2; 5 mM HEPES and pH was adjusted to 7.4 with HCl.
Compounds were also evaluated for their effect in several other assays, including their effect on Peak INa. In some cases, the effect on Peak INa was measured using data from the Late INa assay. […] Since the peak INa can be very large, introducing artifacts in the recording, the concentration of Na^+ in the bath is reduced to 20 mM and a nonpermeant cation is added to compensate for the Na^+ that was omitted from the standard extracellular solution (see above). The peak INa assay uses a holding potential of −100 mV and a 20 ms test pulse to 0 mV to activate the channel. As in the Late INa assay, stepping the voltage to 0 mV causes a rapid increase in negative Na current through hNav1.5 that inactivates within a few ms. No late INa activator is added for the peak assay.
For the separate peak INa assay, both tonic (TB) block and use-dependent (UDB) block of peak inward sodium current by 10 μM compound are determined. TB is block of the channel in the resting state, before the channel opens. TB is simulated in this assay by stimulating the channel to open at a low frequency (0.1 Hz). This is done in order to measure the control current amplitude and monitor current rundown, enabling correction for rundown in the calculation of percent block for TB.

[3] = molecular target: T1, wild-type human cardiac sodium channel, hNav1.5; assay: Late INa screening assay (late sodium current, PatchXpress whole cell patch clamp); type: cell-based; details: read-out: Late INa % blk
[4] = tonic block, read-out: Tonic Peak INa % blk
[5] = use-dependent block, read-out: UDB Peak INa % blk

T1 sequence (Q14524 whole entry): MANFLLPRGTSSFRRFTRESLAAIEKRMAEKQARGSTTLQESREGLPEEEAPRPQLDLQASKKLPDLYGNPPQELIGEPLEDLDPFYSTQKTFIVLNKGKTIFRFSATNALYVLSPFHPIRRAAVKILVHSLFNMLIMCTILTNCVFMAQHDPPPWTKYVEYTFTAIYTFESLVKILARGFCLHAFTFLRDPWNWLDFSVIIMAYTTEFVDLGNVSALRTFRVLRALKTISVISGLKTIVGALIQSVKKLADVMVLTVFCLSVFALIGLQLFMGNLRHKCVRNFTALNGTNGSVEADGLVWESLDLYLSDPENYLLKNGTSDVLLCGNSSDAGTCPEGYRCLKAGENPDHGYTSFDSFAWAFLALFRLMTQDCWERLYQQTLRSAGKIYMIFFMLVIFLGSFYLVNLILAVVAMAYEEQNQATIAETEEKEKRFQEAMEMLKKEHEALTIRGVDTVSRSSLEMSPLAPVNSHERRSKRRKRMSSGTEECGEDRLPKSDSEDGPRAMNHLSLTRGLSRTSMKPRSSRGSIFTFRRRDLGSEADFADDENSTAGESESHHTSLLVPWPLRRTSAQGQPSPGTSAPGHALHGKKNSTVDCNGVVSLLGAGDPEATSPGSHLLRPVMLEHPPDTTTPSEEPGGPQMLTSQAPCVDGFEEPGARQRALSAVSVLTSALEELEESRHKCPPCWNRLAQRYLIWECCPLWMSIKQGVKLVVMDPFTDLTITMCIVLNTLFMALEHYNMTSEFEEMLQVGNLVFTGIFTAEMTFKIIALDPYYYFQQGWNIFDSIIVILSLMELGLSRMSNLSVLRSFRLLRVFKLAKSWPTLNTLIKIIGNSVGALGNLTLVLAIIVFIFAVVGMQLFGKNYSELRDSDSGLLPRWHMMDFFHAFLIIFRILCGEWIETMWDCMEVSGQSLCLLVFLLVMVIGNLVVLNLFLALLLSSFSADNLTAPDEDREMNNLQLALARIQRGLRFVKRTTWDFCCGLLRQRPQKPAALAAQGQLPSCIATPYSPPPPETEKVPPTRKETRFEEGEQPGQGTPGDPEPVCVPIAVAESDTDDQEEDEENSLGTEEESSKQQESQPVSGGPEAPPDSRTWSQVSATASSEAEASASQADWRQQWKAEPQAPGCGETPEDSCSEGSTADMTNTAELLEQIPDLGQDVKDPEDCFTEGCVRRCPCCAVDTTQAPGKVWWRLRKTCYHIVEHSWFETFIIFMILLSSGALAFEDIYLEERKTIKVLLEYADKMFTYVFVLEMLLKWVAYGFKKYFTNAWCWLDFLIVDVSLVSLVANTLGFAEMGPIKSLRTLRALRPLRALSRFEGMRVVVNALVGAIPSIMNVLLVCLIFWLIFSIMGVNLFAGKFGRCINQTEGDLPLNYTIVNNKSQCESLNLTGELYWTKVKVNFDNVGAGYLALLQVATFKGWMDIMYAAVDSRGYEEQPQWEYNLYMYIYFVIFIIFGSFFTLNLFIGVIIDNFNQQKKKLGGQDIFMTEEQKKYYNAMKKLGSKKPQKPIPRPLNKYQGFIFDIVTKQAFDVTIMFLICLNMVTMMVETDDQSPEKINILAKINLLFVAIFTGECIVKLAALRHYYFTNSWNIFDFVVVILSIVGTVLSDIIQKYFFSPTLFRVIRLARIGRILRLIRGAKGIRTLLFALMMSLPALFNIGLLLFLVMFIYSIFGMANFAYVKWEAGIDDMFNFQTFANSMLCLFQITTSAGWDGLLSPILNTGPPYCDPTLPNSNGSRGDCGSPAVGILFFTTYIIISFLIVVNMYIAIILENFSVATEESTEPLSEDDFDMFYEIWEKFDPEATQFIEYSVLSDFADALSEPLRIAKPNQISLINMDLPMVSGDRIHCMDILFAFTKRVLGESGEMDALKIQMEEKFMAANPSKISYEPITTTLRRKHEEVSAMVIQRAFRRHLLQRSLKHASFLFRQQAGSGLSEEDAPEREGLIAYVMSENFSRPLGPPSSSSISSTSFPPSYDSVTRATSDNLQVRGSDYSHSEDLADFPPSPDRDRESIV
hERG potassium channel, sequence (Q12809 whole entry): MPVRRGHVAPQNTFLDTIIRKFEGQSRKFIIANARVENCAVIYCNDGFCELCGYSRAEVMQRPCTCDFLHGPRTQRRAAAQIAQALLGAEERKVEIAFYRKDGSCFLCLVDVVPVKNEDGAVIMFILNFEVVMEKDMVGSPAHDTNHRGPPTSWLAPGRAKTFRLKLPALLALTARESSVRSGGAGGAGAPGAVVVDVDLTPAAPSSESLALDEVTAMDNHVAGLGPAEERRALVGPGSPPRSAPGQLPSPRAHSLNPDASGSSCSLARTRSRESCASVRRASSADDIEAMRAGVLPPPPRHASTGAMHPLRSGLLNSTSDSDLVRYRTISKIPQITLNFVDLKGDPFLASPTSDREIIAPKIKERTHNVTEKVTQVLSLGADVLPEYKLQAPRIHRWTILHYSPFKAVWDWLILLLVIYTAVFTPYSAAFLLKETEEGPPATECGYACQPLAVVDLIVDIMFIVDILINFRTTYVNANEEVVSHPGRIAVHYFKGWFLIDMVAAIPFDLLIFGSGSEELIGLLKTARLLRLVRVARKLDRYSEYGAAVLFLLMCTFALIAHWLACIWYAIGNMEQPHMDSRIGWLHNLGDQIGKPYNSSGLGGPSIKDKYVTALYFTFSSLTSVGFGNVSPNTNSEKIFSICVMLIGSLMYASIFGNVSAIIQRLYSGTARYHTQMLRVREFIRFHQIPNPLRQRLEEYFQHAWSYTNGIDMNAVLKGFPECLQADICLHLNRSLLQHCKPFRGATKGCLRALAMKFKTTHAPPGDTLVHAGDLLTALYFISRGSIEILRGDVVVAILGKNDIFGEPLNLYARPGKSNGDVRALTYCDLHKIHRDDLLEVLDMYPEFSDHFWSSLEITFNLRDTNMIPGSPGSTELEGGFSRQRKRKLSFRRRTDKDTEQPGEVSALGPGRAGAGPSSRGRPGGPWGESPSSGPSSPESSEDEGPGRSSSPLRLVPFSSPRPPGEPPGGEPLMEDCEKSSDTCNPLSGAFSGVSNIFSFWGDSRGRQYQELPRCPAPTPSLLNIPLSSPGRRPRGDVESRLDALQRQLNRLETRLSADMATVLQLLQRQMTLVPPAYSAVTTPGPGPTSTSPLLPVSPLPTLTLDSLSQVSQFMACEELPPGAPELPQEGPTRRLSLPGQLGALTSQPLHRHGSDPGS

SMILES	hERG Patch Clamp hERG % blk ([1]; 1 μM)	hERG Patch Clamp hERG % blk ([1]; 10 μM)	inhibition at 10 µM [2, 4]	inhibition at 10 µM ([3]; compound at 10 μM)	inhibition at 10 µM [3]	inhibition at 10 µM [2, 5]
N#CC1=C(N)OC2=C(C(=O)CC(c3ccccc3)C2)C1c1cccs1 (stereo not drawn) [PT-101, 2-amino-5-oxo-7-phenyl-4-(thiophen-2-yl)-5,6,7,8-tetrahydro-4H-chromene-3-carbonitrile]	19.0%	67.5%	2.9%	49.3%		
CCOC(=O)C1=C(C)NC(C)=C(C(=O)OCC)C1c1ccc2ccccc2c1 [PT-107, diethyl 2,6-dimethyl-4-(naphthalen-2-yl)-1,4-dihydropyridine-3,5-dicarboxylate]	11.5%	48.0%	25.9%	91.9%		
CCOC(=O)C1=C(C)NC(C)=C(C(=O)OCC)C1c1ccc(CC)s1 [PT-113, diethyl 4-(5-ethylthiophen-2-yl)-2,6-dimethyl-1,4-dihydropyridine-3,5-dicarboxylate]	11.0%	57.3%	30.4%	88.6%		
CCOC(=O)C1=C(C)NC(C)=C(C(=O)OCC)C1c1cc2ccccc2s1 [PT-114, diethyl 4-(benzo[b]thiophen-2-yl)-2,6-dimethyl-1,4-dihydropyridine-3,5-dicarboxylate]	20.9%	51.5%	13.1%	85%		
CCOC(=O)C1=C(C)NC(C)=C(C(=O)OCC)C1c1csc2ccccc12 [PT-115, diethyl 4-(benzo[b]thiophen-3-yl)-2,6-dimethyl-1,4-dihydropyridine-3,5-dicarboxylate]		50.3%	17.2%	86%		
CC1=C(C(=O)OC(C)C)C(c2cccc3ccccc23)C(C(=O)OC(C)C)=C(C)N1 [PT-123, diisopropyl 2,6-dimethyl-4-(naphthalen-1-yl)-1,4-dihydropyridine-3,5-dicarboxylate]	10.0%	30.5%	7%	86.9%		
CC1=C(C(=O)OC(C)C)C(c2ccc(Br)s2)C(C(=O)OC(C)C)=C(C)N1 [PT-124, diisopropyl 4-(5-bromothiophen-2-yl)-2,6-dimethyl-1,4-dihydropyridine-3,5-dicarboxylate]	11.5%	66.0%	58.7%	86.2%		
CCOC(=O)C1=C(C)NC2=C(C(=O)CCC2)C1c1ccco1 (stereo not drawn) [PT-153, ethyl 4-(furan-2-yl)-2-methyl-5-oxo-1,4,5,6,7,8-hexahydroquinoline-3-carboxylate]	10.5%	13.5%	1.7%	-5%		
CC1=C(C(=O)OC(C)C)C(c2ccc3ccccc3c2)C2=C(CCCC2=O)N1 (stereo not drawn) [PT-157, isopropyl 2-methyl-4-(naphthalen-2-yl)-5-oxo-1,4,5,6,7,8-hexahydroquinoline-3-carboxylate]	16.0%	37.1%	15.3%	62.3%		
CC1=C(C(=O)N2CCC(c3ccc(C(=O)O)cc3)CC2)C(c2cccc3ccccc23)C2=C(CCCC2=O)N1 (stereo not drawn) [PT-173, 4-(1-(2-methyl-4-(naphthalen-1-yl)-5-oxo-1,4,5,6,7,8-hexahydroquinoline-3-carbonyl)piperidin-4-yl)benzoic acid]	12.0%	37.0%	0%	52.6%		
CCOC(=O)C1=C(CC)NC(CC)=C(C(=O)OCC)C1c1ccc(Br)s1 [PT-181, diethyl 4-(5-bromothiophen-2-yl)-2,6-diethyl-1,4-dihydropyridine-3,5-dicarboxylate]	10.5%	73.0%	76.5%	91.7%		
CCOC(=O)C1=C(C)N(C)C(C)=C(C(=O)OCC)C1c1cccc2ccccc12 [PT-191, diethyl 1,2,6-trimethyl-4-(naphthalen-1-yl)-1,4-dihydropyridine-3,5-dicarboxylate]	26.5%	68.0%	0%	63.2%		
CCOC(=O)C1=C(C)Nc2nnnn2C1c1cccc2ccccc12 (stereo not drawn) [PT-192, ethyl 5-methyl-7-(naphthalen-1-yl)-4,7-dihydrotetrazolo[1,5-a]pyrimidine-6-carboxylate]	23.0%	29.0%	0%		52.3%	
CCOC(=O)C1=C(C)Nc2nc(C#N)c(C#N)n2C1c1cccc2ccccc12 (stereo not drawn) [PT-194, ethyl 2,3-dicyano-7-methyl-5-(naphthalen-1-yl)-5,8-dihydroimidazo[1,2-a]pyrimidine-6-carboxylate]	25.0%	91.0%	19.1%	76.1%		
CC1=C(C(=O)OCc2ccccc2)C(c2cccc3ccccc23)n2nnnc2N1C (stereo not drawn) [PT-195, benzyl 4,5-dimethyl-7-(naphthalen-1-yl)-4,7-dihydrotetrazolo[1,5-a]pyrimidine-6-carboxylate]	12.5%	49.0%	1.7%	52.7%		
CC1=C(C(=O)OCc2ccccc2)[C@@H](c2ccccc2-c2ccc(C)o2)n2nnnc2N1 [PT-235, (R)-benzyl 5-methyl-7-(2-(5-methylfuran-2-yl)phenyl)-4,7-dihydrotetrazolo[1,5-a]pyrimidine-6-carboxylate]	10.0%	41.5%	28.1%	71.4%		
CC1=C(C(=O)OCc2ccccc2)C(c2c(-c3ccc(C(=O)O)cc3)sc3ccccc23)n2nnnc2N1 (stereo not drawn) [PT-294, 4-(3-(6-(benzyloxycarbonyl)-5-methyl-4,7-dihydrotetrazolo[1,5-a]pyrimidin-7-yl)benzo[b]thiophen-2-yl)benzoic acid]	12.5%	15.5%	24.4%	67.2%		
COc1cc(Cl)ccc1COC(=O)C1=C(C)Nc2nnnn2C1c1c(Cl)cccc1Cl (stereo not drawn) [PT-306, 4-chloro-2-methoxybenzyl 7-(2,6-dichlorophenyl)-5-methyl-4,7-dihydrotetrazolo[1,5-a]pyrimidine-6-carboxylate]	10.0%	48.5%	20.1%	70.4%		9%
COc1cc(Cl)ccc1COC(=O)C1=C(C)Nc2nnnn2C1c1c(C)cccc1C (stereo not drawn) [PT-307, 4-chloro-2-methoxybenzyl 7-(2,6-dimethylphenyl)-5-methyl-4,7-dihydrotetrazolo[1,5-a]pyrimidine-6-carboxylate]	10.0%	62.5%	14%	84.9%		16.6%
C=CCOC(=O)C1=C(C)Nc2nnnn2C1c1cccc2ccccc12 (stereo not drawn) [PT-319, allyl 5-methyl-7-(naphthalen-1-yl)-4,7-dihydrotetrazolo[1,5-a]pyrimidine-6-carboxylate]	10.0%	41.0%	4.5%	55.7%		
